Results published in patent US4246270A, “3-Fluorobenzodiazepines and compositions and uses thereof” (E. I. Du Pont de Nemours and Company, priority 1976, dated 1981).
Where two headings read alike, the source gives them in different places.

Assays:
[1] = man and other animals; cited from earlier work
[2] = tested on: tactile pinna reflex; assay: Tactile pinna reflex test (mouse); format: in vivo; conditions: 0.5 h, oral (intubated), 30 minutes
Experimental: (§1) Standard procedures for detecting and comparing the tranquilizer, muscle-relaxant, and sedative activity of compounds in this series for which there is a correlation with human efficacy are the following: pinna reflex tests, antipentylenetetrazole test, rat activity suppression test (RAST), muscle relaxant (anti-straub tail) test, and mouse activity suppression test (MAST).
(§2) Fasted female white mice, 5 per dose are intubated with drug at 4, 12, 36, 108 and 324 mg/kg in 1% Methocel®^- 1.25% Tween 80®, at 10 ml/kg. The auditory and tactile pinna are tested at 0.5, 2, 5 and 24 hours.
The mouse is held by the tail and the hairs inside the right ear are touched by the fine wire stylus from a 27 gauge needle. Failure of the mouse to twitch or move the head constitutes loss of the tactile pinna reflex.
(§3) Potency in the antipentylenetetrazole (PTZ), the MAST, and the RAST tests indicates a potent antianxiety agent. Great potency for blockade of the mouse auditory pinna reflex with little or no effect on tactile pinna reflex is characteristic of minor tranquilizers.

[3] = tested on: suppression of exploratory locomotor behavior by punishment; assay: Mouse activity suppression test (MAST); format: in vivo; conditions: oral, footnote *ED20%
Description: as §1
The Mouse Activity Suppression Test (MAST) is a model system designed to detect compounds with possible anti-anxiety activity in humans. […] The punishment, an electric shock applied through the mouse's paws, quickly extinguishes normal behavior.
The test procedure is modified from Boissier, et al., European J. Pharm., 4, 145-151 (1968). Female white mice, fasted 16-22 hours, are randomly distributed to fiberglass holding boxes. Mice in groups of 10-20 are dosed orally and returned to their holding boxes until test time. Test drug suspensions or solutions are prepared by sonication in 1% Methocel®. Typical dose ranges include 0.5, 1, 2, and 4 mg/k or 1, 3, 9, 27, 81 mg/kg plus a vehicle control and are selected to include one dose at which an effect such as sedation, stimulation, muscle weakness or analgesia was seen.
The test apparatus is an opaque, black plastic box with a clear lid and a stainless steel grid floor. The floor of the test box is marked off into four squares of equal size.
After dosing, a mouse is gently place in one corner of the testing box and during the next minute each time the mouse makes a full crossing from one square section of the box to another the floor is electrified with 0.4 ma current for 2.0 seconds.
The number of shocks received by each mouse is recorded and the mean number of shocks/dose (X) is determined. When X drug at any dose is statistically greater than X controls (Student's t test), antagonism of suppression obtains and the drug is presumed to have anti-anxiety activity.
as §3

[4] = tested on: auditory pinna reflex; assay: Auditory pinna reflex test (mouse); format: in vivo; conditions: 0.5 h, oral (intubated), 30 minutes
Experimental: as §1, §2
The mouse is placed on a horizontal bar 9 cm from a Galton whistle adjusted for 13 Kc. Failure to flatten the ears during one or 2 short bursts of sound constitutes loss of auditory pinna reflex.
as §3

[5] = tested on: morphine-induced Straub tail; assay: Muscle relaxant (anti-Straub tail) test; format: in vivo; conditions: 0.5 h; mouse, oral (intubated), 30 minutes; blockade of morphine-induced Straub tail (53.7 mg/kg sc)
Description: as §1
Fasted female white mice, 5 per dose are intubated with test drug. Twenty-five minutes later morphine sulfate is given subcutaneously at 53.7 mg/kg. Thirty minutes after test drug the mice are observed for presence of Straub tail. Quantal ED50 values for blockade of morphine-induced Straub tail are calculated.
as §3

[6] = tested on: line crossings suppressed by shock; assay: Rat activity suppression test (RAST); format: in vivo; conditions: 0.5 h, oral (intubated), 30 minutes, dose which would increase crossings 50% over controls
Description: as §1
The test apparatus consists of a circular cage with lid and with a floor of electrifiable steel bars. D.C. shock current is supplied to the bars such that touching any 2 alternate bars shocks the rat. The floor is marked to yield 4 equal pie-shaped sectors.
Fasted male white rats, 10 per dose are intubated with drug as described above for mice. Thirty minutes after dosing a rat is placed in the test apparatus and is allowed 30 seconds to transverse 25% of the floor area after which he receives a shock. The rat is allowed 5 seconds to recover from the shock, then its "line crossings" are counted for 60 seconds. The mean number of crossings per rat for each dose are determined and are compared to the mean number of crossings of the vehicle treated controls. ED50 %, the dose which would increase the number of crossings 50% over controls, is determined graphically.
as §3

[7] = tested on: PTZ-induced clonic convulsions; assay: Antipentylenetetrazole (PTZ) test; format: in vivo; conditions: mouse; for ED50: 0.5 h, oral (intubated), 30 minutes before PTZ 40 mg/kg iv, read-out: Anti-PTZ, mouse ED50
Experimental: as §1
Fasted female white mice, 10 per dose are intubated with drug in vehicle as above at doses such as 0, 1, 3, 9, 27 and 81 mg/kg. Thirty minutes later the mice are dosed intravenously with PTZ (Metrazol®^1) at 40 mg/kg (ED98 for clonic convulsions). Dosed animals which remain on a 4"×4" platform for 20 seconds are considered protected. Quantal ED50 's are calculated by the moving average method.
1 Original brand of pentylenetetrazole; sterile 10% aqueous solution for parenteral injection, Knoll Pharmaceutical Company.
as §3

[8] = warming in alcohol; cited from earlier work
[9] = 0.5 h, 30 minutes, read-out: MAST, ED20%

Compound: CCN(CC)CCN1C(=O)CN=C(c2ccccc2F)c2cc(Cl)ccc21 [flurazepam]
- metabolism [1]: metabolized in man and other animals by oxidative attack at the 3-position

Compound: CN1C(=O)CN=C(c2ccccc2)c2cc(Cl)ccc21 [Diazepam, reference compound]
- ED50 [2]: 187 mg/kg
- ED20 [3, 9]: 1.1 mg/kg
- ED50 [4]: 4 mg/kg
- ED50 [5]: 1 mg/kg
- ED50 [6]: 1.5 mg/kg
- ED50 [7]: 0.49 mg/kg

Compound: CN1C(=O)C(F)N=C(c2ccccc2F)c2cc(Br)ccc21 (stereo not drawn) [X=Br, Y=F, Z=CH3, 3-Fluoro-7-bromo-5-(2-fluorophenyl)-1,3-dihydro-1-methyl-2H-1,4-benzodiazepin-2-one]
- ED50 [2]: < 324 mg/kg
- ED50 [4]: < 4 mg/kg
- ED50 [7]: 0.06 mg/kg

Compound: CN1C(=O)C(F)N=C(c2ccccc2)c2cc(Cl)ccc21 (stereo not drawn) [X=Cl, Y=H, Z=CH3, 3-Fluoro-1,3-dihydro-1-methyl-7-chloro-5-phenyl-2H-1,4-benzodiazepin-2-one]
- ED50 [2]: 121 mg/kg
- ED20 [3, 9]: 0.25 mg/kg
- ED50 [4]: 5 mg/kg
- ED50 [5]: 0.25 mg/kg
- ED50 [6]: 0.45 mg/kg
- ED50 [7]: 0.18 mg/kg

Compound: CNC(=O)N1C(=O)C(F)N=C(c2ccccc2)c2cc(Cl)ccc21 (stereo not drawn) [X=Cl, Y=H, Z=[drawing 57]]
- ED50 [2]: 36 mg/kg
- ED50 [4]: < 4 mg/kg

Compound: O=C1Nc2ccc(Cl)cc2C(c2ccccc2)=NC1Cl (stereo not drawn) [3,7-dichloro-5-phenyl-1,3-dihydro-2H-1,4-benzodiazepin-2-one]
- stability (3-chloro derivative) [8]: extremely reactive: mere warming in alcohol caused decomposition

Compound: O=C1Nc2ccc(Br)cc2C(c2ccccc2)=NC1F (stereo not drawn) [X=Br, Y=H, Z=H, 3-Fluoro-7-bromo-1,3-dihydro-5-phenyl-2H-1,4-benzodiazepin-2-one]
- ED50 [2]: 100 mg/kg
- ED20 [3, 9]: 0.04 mg/kg
- ED50 [4]: 1.2 mg/kg
- ED50 [5]: 0.05 mg/kg
- ED50 [6]: 0.15 mg/kg
- ED50 [7]: 0.74 mg/kg

Compound: C1CCc2nnnn2CC1 [PTZ, pentylenetetrazole, reference compound]
- ED98 ([7]; intravenous PTZ challenge): 40 mg/kg

Compound: O=C1Nc2ccc(Br)cc2C(c2ccccc2F)=NC1F (stereo not drawn) [X=Br, Y=F, Z=H, 3-Fluoro-7-bromo-5-(2-fluorophenyl)-1,3-dihydro-2H-benzodiazepin-2-one]
- ED50 [2]: 300 mg/kg
- ED50 [4]: < 4 mg/kg
- ED50 [7]: 0.12 mg/kg

Compound: CNC1=Nc2ccc(Cl)cc2C(c2ccccc2)=[N+]([O-])C1 [Chlorodiazepoxide, reference compound]
- ED50 [2]: 320 mg/kg
- ED20 [3, 9]: 8.5 mg/kg
- ED50 [4]: 70 mg/kg
- ED50 [5]: 1.9 mg/kg
- ED50 [6]: 6 mg/kg
- ED50 [7]: 7.5 mg/kg

Compound: O=C1Nc2ccc(Cl)cc2C(c2ccccc2)=NC1F (stereo not drawn) [X=Cl, Y=H, Z=H, 3-Fluoro-1,3-dihydro-7-chloro-5-phenyl-2H-1,4-benzodiazepin-2-one]
- ED20 ([3]; 1 h, 60 minutes (footnote d), read-out: MAST, ED20% (at 60 minutes)): 0.37 mg/kg
- ED50 [4]: 2.6 mg/kg
- ED50 [5]: 0.1 mg/kg
- ED50 [7]: 0.39 mg/kg

Compound: O=C1Nc2ccc(Cl)cc2C(c2ccccc2Cl)=NC1F (stereo not drawn) [X=Cl, Y=Cl, Z=H, 3-Fluoro-7-chloro-5-(2-chlorophenyl)-1,3-dihydro-2H-1,4-benzodiazepin-2-one]
- ED50 [2]: > 324 mg/kg
- ED20 [3, 9]: 1.15 mg/kg
- ED50 [4]: < 4 mg/kg
- ED50 [5]: < 0.33 mg/kg
- ED50 [7]: 0.34 mg/kg

Compound: C=CCN1C(=O)C(F)N=C(c2ccccc2)c2cc(Cl)ccc21 (stereo not drawn) [X=Cl, Y=H, Z=CH2 CHCH2, 3-Fluoro-1-(allyl)-7-chloro-5-phenyl-2H-1,4-benzodiazepin-2-one]
- ED50 [2]: 100 mg/kg
- ED20 [3, 9]: 2.9 mg/kg
- ED50 [4]: 20 mg/kg
- ED50 [5]: < 1 mg/kg
- ED50 [7]: 6.1 mg/kg

Compound: CN1C(=O)C(F)N=C(c2ccccc2Cl)c2cc(Cl)ccc21 (stereo not drawn) [X=Cl, Y=Cl, Z=CH3, 3-Fluoro-7-chloro-5-(2-chlorophenyl)-1,3-dihydro-1-methyl-2H-1,4-benzodiazepin-2-one]
- ED50 [2]: > 324 mg/kg
- ED50 [4]: 60 mg/kg
- ED50 [7]: 0.09 mg/kg

Compound: CN1C(=O)C(F)N=C(c2ccccc2F)c2cc(Cl)ccc21 (stereo not drawn) [X=Cl, Y=F, Z=CH3, 3-Fluoro-1,3-dihydro-1-methyl-7-chloro-5-(2-fluorophenyl)-2H-1,4-benzodiazepin-2-one]
- ED50 [2]: 200 mg/kg
- ED20 [3, 9]: 0.05 mg/kg
- ED50 [4]: 7 mg/kg
- ED50 [5]: 0.06 mg/kg
- ED50 [6]: 0.24 mg/kg
- ED50 [7]: 0.12 mg/kg

Compound: O=C1CN=C(c2ccccc2)c2cc([N+](=O)[O-])ccc2N1 [nitrazepam]
- metabolism [1]: metabolized in man and other animals by oxidative attack at the 3-position

Compound: O=C1Nc2ccc(Cl)cc2C(c2ccccc2)=NC1O (stereo not drawn) [Oxazepam, reference compound]
- ED20 [3, 9]: 2.7 mg/kg
- ED50 [4]: 2.9 mg/kg
- ED50 [5]: 0.26 mg/kg
- ED50 [6]: 2.5 mg/kg
- ED50 [7]: 2 mg/kg

Compound: CN1C(=O)C(F)N=C(c2ccccc2)c2cc(Br)ccc21 (stereo not drawn) [X=Br, Y=H, Z=CH3, 3-Fluoro-7-bromo-1,3-dihydro-1-methyl-5-phenyl-2H-1,4-benzo-diazepin-2-one]
- ED50 [2]: 300 mg/kg
- ED20 [3, 9]: 0.16 mg/kg
- ED50 [4]: 1.3 mg/kg
- ED50 [6]: 1.7 mg/kg
- ED50 [7]: 0.22 mg/kg

Compound: O=C1Nc2ccc(Cl)cc2C(c2ccccc2F)=NC1F (stereo not drawn) [X=Cl, Y=F, Z=H, 3-Fluoro-1,3-dihydro-7-chloro-5-(2-fluorophenyl)-2H-1,4-benzodiazepin-2-one]
- ED50 [2]: 200 mg/kg
- ED20 [3, 9]: 0.48 mg/kg
- ED50 [4]: 12 mg/kg
- ED50 [7]: 0.42 mg/kg

Compound: CCN1C(=O)C(F)N=C(c2ccccc2)c2cc(Cl)ccc21 (stereo not drawn) [X=Cl, Y=H, Z=C2 H5, 3-Fluoro-1,3-dihydro-1-ethyl-7-chloro-5-phenyl-2H-1,4-benzodiazepin-2-one]
- ED50 [2]: > 324 mg/kg
- ED20 [3, 9]: 0.45 mg/kg
- ED50 [4]: 12 mg/kg
- ED50 [5]: < 0.24 mg/kg
- ED50 [7]: 0.56 mg/kg
